Data reported in the supplement of paper PMC10307832.

compound: O=C(O)C(Cc1ccccc1[N+](=O)[O-])=NNc1nc(-c2ccc(Cl)c(Cl)c2)cs1 (mixture of isomers) [4EGI-1] + CC(=O)Nc1cccc(-n2c(=O)n(C3CC3)c(=O)c3c(Nc4ccc(I)cc4F)n(C)c(=O)c(C)c32)c1 [Trametinib] (partner 0.02 µM); experiment: relative viability (nuclei count vs DMSO), 5 days (fraction); higher = more cells survive; conditions: first compound 50 µM
Outline: (§1)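 Nuclei were stained with Hoechst during a one-step fixation (final 0.05% Triton X-100, 1% formaldehyde, 1 ug/ml Hoechst) carried out 5 days after dosing, then counted on 4× images. The cells, lung cancer lines in 1536-well plates, had been dosed by pin tool the day after seeding with one drug alone or a fixed anchor-drug dose plus five library-drug doses (not always all listed) in √10 steps. Relative viability is the nuclei count in treated wells divided by that in vehicle wells, and each value is the median of duplicate plates.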

Cell Line | relative viability
NCI-H2023 | 0.0814
NCI-H2085 | 0.364
NCI-H2087 | 0.126
NCI-H2126 | 0.384

compound: O=C(O)C(Cc1ccccc1[N+](=O)[O-])=NNc1nc(-c2ccc(Cl)c(Cl)c2)cs1 (mixture of isomers) [4EGI-1] + CCNC(=O)c1noc(-c2cc(C(C)C)c(O)cc2O)c1-c1ccc(CN2CCOCC2)cc1 [Luminespib] (partner 0.01 µM); experiment: as above; conditions: first compound 0.5 µM
Outline: as §1

Cell Line | relative viability
LK-2 | 0.192
LOU-NH91 | 0.351
LU99A | 0.246
LXF-289 | 0.745
NCI-H23 | 0.221
NCI-H322M | 1
NCI-H358 | 0.339
NCI-H441 | 0.375
NCI-H460 | 0.038
NCI-H520 | 0.231
NCI-H596 | 1.02
NCI-H647 | 0.227
NCI-H650 | 0.825
NCI-H661 | 0.883
NCI-H727 | 0.506
NCI-H838 | 0.335
NCI-H1355 | 0.708

Cell Line | relative viability
NCI-H1395 | 0.717
NCI-H1437 | 1.19
NCI-H1651 | 0.975
NCI-H1666 | 1.1
NCI-H1734 | 0.203
NCI-H1755 | 0.583
NCI-H1793 | 0.246
NCI-H1915 | 0.838
NCI-H1944 | 0.717
NCI-H1975 | 0.337
NCI-H1993 | 1.03
NCI-H2009 | 1.09
NCI-H2023 | 0.897
NCI-H2085 | 0.461
NCI-H2087 | 0.191
NCI-H2126 | 0.993

same assay, conditions: first compound 1.581 µM

Cell Line | relative viability
LU99A | 0.271
LXF-289 | 0.62
NCI-H358 | 0.353
NCI-H441 | 0.315
NCI-H520 | 0.241
NCI-H596 | 0.955
NCI-H661 | 0.76
NCI-H727 | 0.381
NCI-H1355 | 0.706
NCI-H1395 | 0.436
NCI-H1437 | 1.05
NCI-H1651 | 0.658
NCI-H1666 | 0.982
NCI-H1734 | 0.193
NCI-H1755 | 0.665
NCI-H1793 | 0.246
NCI-H1915 | 0.606
NCI-H1993 | 0.786
NCI-H2009 | 1.08
NCI-H2023 | 0.544
NCI-H2085 | 0.452
NCI-H2087 | 0.139

same assay, conditions: first compound 5 µM

Cell Line | relative viability
LK-2 | 0.269
LOU-NH91 | 0.398
LU99A | 0.308
LXF-289 | 0.745
NCI-H23 | 0.23
NCI-H322M | 0.855
NCI-H358 | 0.293
NCI-H441 | 0.294
NCI-H460 | 0.0367
NCI-H520 | 0.184
NCI-H596 | 1.03
NCI-H647 | 0.149
NCI-H650 | 0.878
NCI-H661 | 0.798
NCI-H727 | 0.273
NCI-H838 | 0.226
NCI-H1355 | 0.762

Cell Line | relative viability
NCI-H1395 | 0.766
NCI-H1437 | 1.15
NCI-H1651 | 1.01
NCI-H1666 | 1.04
NCI-H1734 | 0.22
NCI-H1755 | 0.418
NCI-H1793 | 0.197
NCI-H1915 | 0.774
NCI-H1944 | 0.774
NCI-H1975 | 0.214
NCI-H1993 | 0.801
NCI-H2009 | 1.05
NCI-H2023 | 0.798
NCI-H2085 | 0.468
NCI-H2087 | 0.198
NCI-H2126 | 0.96

same assay, conditions: first compound 15.81 µM

Cell Line | relative viability
LK-2 | 0.206
LOU-NH91 | 0.328
LU99A | 0.228
LXF-289 | 0.644
NCI-H23 | 0.246
NCI-H322M | 0.727
NCI-H358 | 0.224
NCI-H441 | 0.306
NCI-H460 | 0.0323
NCI-H520 | 0.256
NCI-H596 | 1.07
NCI-H647 | 0.137
NCI-H650 | 0.646
NCI-H661 | 0.606
NCI-H727 | 0.449
NCI-H838 | 0.229
NCI-H1355 | 0.445

Cell Line | relative viability
NCI-H1395 | 0.789
NCI-H1437 | 0.862
NCI-H1651 | 0.933
NCI-H1666 | 0.812
NCI-H1734 | 0.2
NCI-H1755 | 0.42
NCI-H1793 | 0.176
NCI-H1915 | 0.572
NCI-H1944 | 0.633
NCI-H1975 | 0.261
NCI-H1993 | 0.637
NCI-H2009 | 0.954
NCI-H2023 | 0.203
NCI-H2085 | 0.396
NCI-H2087 | 0.206
NCI-H2126 | 0.855

same assay, conditions: first compound 50 µM

Cell Line | relative viability
LK-2 | 0.162
LOU-NH91 | 0.34
LU99A | 0.205
LXF-289 | 0.407
NCI-H23 | 0.179
NCI-H322M | 0.321
NCI-H358 | 0.153
NCI-H441 | 0.292
NCI-H460 | 0.0228
NCI-H520 | 0.205
NCI-H596 | 0.508
NCI-H647 | 0.141
NCI-H650 | 0.784
NCI-H661 | 0.505
NCI-H727 | 0.429
NCI-H838 | 0.144
NCI-H1355 | 0.326

Cell Line | relative viability
NCI-H1395 | 0.496
NCI-H1437 | 0.457
NCI-H1651 | 0.924
NCI-H1666 | 0.397
NCI-H1734 | 0.177
NCI-H1755 | 0.327
NCI-H1793 | 0.139
NCI-H1915 | 0.222
NCI-H1944 | 0.561
NCI-H1975 | 0.159
NCI-H1993 | 0.496
NCI-H2009 | 0.994
NCI-H2023 | 0.0714
NCI-H2085 | 0.355
NCI-H2087 | 0.135
NCI-H2126 | 0.678

compound: O=C(O)C(Cc1ccccc1[N+](=O)[O-])=NNc1nc(-c2ccc(Cl)c(Cl)c2)cs1 (mixture of isomers) [4EGI-1] + C[C@]1(O)C[C@@H](c2nc(-c3ccc4ccc(-c5ccccc5)nc4c3)c3c(N)nccn32)C1 [Linsitinib] (partner 1 µM); experiment: as above; conditions: first compound 0.5 µM
Outline: as §1

Cell Line | relative viability
LK-2 | 0.587
LOU-NH91 | 1.11
LU99A | 0.593
LXF-289 | 0.984
NCI-H23 | 0.718
NCI-H322M | 0.885
NCI-H358 | 0.882
NCI-H441 | 0.77
NCI-H460 | 0.777
NCI-H520 | 1.19
NCI-H596 | 1.06
NCI-H647 | 1.17
NCI-H650 | 0.996
NCI-H661 | 0.723
NCI-H727 | 0.337
NCI-H838 | 1.19
NCI-H1355 | 0.927

Cell Line | relative viability
NCI-H1395 | 1.29
NCI-H1437 | 1.16
NCI-H1651 | 1.2
NCI-H1666 | 0.804
NCI-H1734 | 0.948
NCI-H1755 | 0.966
NCI-H1793 | 1
NCI-H1915 | 1.12
NCI-H1944 | 1.39
NCI-H1975 | 0.902
NCI-H1993 | 0.754
NCI-H2009 | 1.33
NCI-H2023 | 0.75
NCI-H2085 | 1.03
NCI-H2087 | 0.983
NCI-H2126 | 0.734

same assay, conditions: first compound 1.581 µM

Cell Line | relative viability
LK-2 | 0.357
LXF-289 | 0.96
NCI-H322M | 0.929
NCI-H358 | 0.689
NCI-H441 | 0.492
NCI-H520 | 0.984
NCI-H596 | 0.818
NCI-H647 | 1.12
NCI-H661 | 0.502
NCI-H727 | 0.286
NCI-H1355 | 0.831
NCI-H1437 | 1
NCI-H1651 | 0.805
NCI-H1666 | 0.771
NCI-H1734 | 0.866
NCI-H1755 | 0.99
NCI-H1793 | 0.996
NCI-H1915 | 0.779
NCI-H1975 | 0.941
NCI-H1993 | 0.757
NCI-H2009 | 1.23
NCI-H2085 | 0.911
NCI-H2087 | 0.983
NCI-H2126 | 0.693

same assay, conditions: first compound 5 µM

Cell Line | relative viability
LK-2 | 0.777
LOU-NH91 | 0.97
LU99A | 0.651
LXF-289 | 0.921
NCI-H23 | 0.704
NCI-H322M | 0.947
NCI-H358 | 0.889
NCI-H441 | 0.798
NCI-H460 | 1.07
NCI-H520 | 1.01
NCI-H596 | 1.09
NCI-H647 | 1.22
NCI-H650 | 1.24
NCI-H661 | 0.624
NCI-H727 | 0.268
NCI-H838 | 1.02
NCI-H1355 | 0.714

Cell Line | relative viability
NCI-H1395 | 1.52
NCI-H1437 | 0.919
NCI-H1651 | 0.982
NCI-H1666 | 0.778
NCI-H1734 | 0.991
NCI-H1755 | 0.958
NCI-H1793 | 0.819
NCI-H1915 | 1.06
NCI-H1944 | 1.21
NCI-H1975 | 1.01
NCI-H1993 | 0.737
NCI-H2009 | 1.29
NCI-H2023 | 0.562
NCI-H2085 | 0.887
NCI-H2087 | 1
NCI-H2126 | 0.717

same assay, conditions: first compound 15.81 µM

Cell Line | relative viability
LK-2 | 0.604
LOU-NH91 | 0.543
LU99A | 0.524
LXF-289 | 0.935
NCI-H23 | 0.629
NCI-H322M | 0.798
NCI-H358 | 0.69
NCI-H441 | 0.469
NCI-H460 | 0.182
NCI-H520 | 0.75
NCI-H596 | 1.02
NCI-H647 | 1.07
NCI-H650 | 0.915
NCI-H661 | 0.394
NCI-H727 | 0.229
NCI-H838 | 0.854
NCI-H1355 | 0.611

Cell Line | relative viability
NCI-H1395 | 0.874
NCI-H1437 | 0.241
NCI-H1651 | 0.808
NCI-H1666 | 0.583
NCI-H1734 | 1
NCI-H1755 | 0.932
NCI-H1793 | 0.645
NCI-H1915 | 1.07
NCI-H1944 | 1.1
NCI-H1975 | 1.01
NCI-H1993 | 0.699
NCI-H2009 | 1.07
NCI-H2023 | 0.388
NCI-H2085 | 0.771
NCI-H2087 | 0.66
NCI-H2126 | 0.652

same assay, conditions: first compound 50 µM

Cell Line | relative viability
LK-2 | 0.549
LOU-NH91 | 0.665
LU99A | 0.401
LXF-289 | 0.673
NCI-H23 | 0.496
NCI-H322M | 0.891
NCI-H358 | 0.208
NCI-H441 | 0.196
NCI-H460 | 0.0218
NCI-H520 | 0.558
NCI-H596 | 0.815
NCI-H647 | 0.202
NCI-H650 | 0.732
NCI-H661 | 0.309
NCI-H727 | 0.301
NCI-H838 | 0.434
NCI-H1355 | 0.614

Cell Line | relative viability
NCI-H1395 | 0.534
NCI-H1437 | 0.152
NCI-H1651 | 0.249
NCI-H1666 | 0.291
NCI-H1734 | 0.529
NCI-H1755 | 0.572
NCI-H1793 | 0.747
NCI-H1915 | 0.861
NCI-H1944 | 1.13
NCI-H1975 | 0.698
NCI-H1993 | 0.706
NCI-H2009 | 0.885
NCI-H2023 | 0.135
NCI-H2085 | 0.639
NCI-H2087 | 0.307
NCI-H2126 | 0.673
